Columns and labels:
Type in all cases: cell-based
[1] = tested on: Ustilago avenae; experiment: Ustilago avenae test (in vitro)/microtest; conditions: single active compound, 4 days incubation, optical density
Experimental: Ustilago avenae—Test (In Vitro)/Microtest
(§1) The microtest was performed in liquid medium with potato-dextrose broth (PDB) using microtitre plates.
(§2) The active compound is applied as the technical active substance dissolved in methanol.
A spore suspension of Ustilago avenae was used for inoculation. After 4 days of incubation by darkness under shaking (10 Hrz), the optical density in each cavity was evaluated with the aid of a microtitre plate reader.
(§3) 0% means an efficacy which corresponds to that of the control, while an efficacy of 100% means that no fungal growth is observed.

[2] = tested on: Pyricularia oryzae; conditions: single active compound, 0.3 ppm, 4 days incubation, optical density
[3] = tested on: Phytophthora cryptogea; experiment: Phytophthora cryptogea test (in vitro)/microtest; conditions: single active compound, 0.3 ppm, 3 days incubation, optical density
Experimental: Phytophthora cryptogea—Test (In Vitro)/Microtest
as §1, §2
A mycelium suspension of Phytophthora ayptogea was used for inoculation. After 3 days of incubation by darkness under shaking (10 Hrz), the optical density in each cavity was evaluated with the aid of a microtitre plate reader.
as §3

| SMILES | Efficacy in % ([1]; Example B, 0.01 ppm) [%] | Efficacy in % [2] [%] | Efficacy in % [3] [%] | Efficacy in % ([1]; Example D, 0.1 ppm) [%] |
| --- | --- | --- | --- | --- |
| Cc1nn(C)c(F)c1C(=O)Nc1ccccc1C(C)CC(C)C (centres unmarked) [BYF 14182] | 95 |  |  |  |
| COc1ccc(-c2coc3cc(O)ccc3c2=O)cc1 [Formononetin] | 13 | 11 | 14 | 17 |
| COCC(=O)N(c1c(C)cccc1C)C(C)C(=O)OC (centres unmarked) [Metalaxyl, metalaxyl] |  |  | 48 |  |
| CC(C)(C)C(O)(CCc1ccc(Cl)cc1)Cn1cncn1 (centres unmarked) [Tebuconazole, tebuconazole] |  |  |  | 96 |
| CO/N=C(/C(=O)OC)c1ccccc1CO/N=C(\C)c1cccc(C(F)(F)F)c1 [Trifloxystrobin, trifloxystrobin] |  | 56 |  |  |
